Results published in the CombiSolv-Exp solvation set (Vermeire and Green 2021).

Experiment: solvent given as SMILES

CCCCC
Details | solvation free energy, 298 K [kJ/mol]
in BrC(Br)C(Br)Br | -8.62
in Brc1ccccc1 | -12.3
in C1=Cc2ccccc2C1 | -11.5
in C1CCCCC1 | -14
in C1CCOC1 | -13.5
in C1COCCO1 | -10.9
in C=CCCCC | -14
in C=CCCCCCC | -13.6
in C=CCCCCCCCC | -13.2
in C=CCCCCCCCCCCCCCC | -12
in CC1COC(=O)O1 | -6.65
in CC#N | -9
in CC(=O)CC(C)C | -12
in CC(=O)N(C)C | -9.58
in CC(=O)O | -9.87
in CC(=O)c1ccccc1 | -10.2
in CC(C)=O | -11.4
in CC(C)CC(C)(C)C | -13.6
in CC(C)CCCC(C)CCCC(C)CCCCC(C)CCCC(C)CCCC(C)C | -11.7
in CC(C)CCO | -11.8
in CC(C)O | -10.9
in CC(C)OC(C)C | -14
in CCBr | -14.4
in CCC#N | -10.8
in CCC(C)=O | -11.8
in CCC(C)O | -11.1
in CCCC#N | -10.4
in CCCC(=O)OCC | -12.6
in CCCC(C)=O | -12.1
in CCCCC(CC)COC(=O)CCCCC(=O)OCC(CC)CCCC | -11.1
in CCCCC(CC)COC(=O)c1ccccc1C(=O)OCC(CC)CCCC | -10.3
in CCCCCC | -14.1
in CCCCCC(C)=O | -12.2
in CCCCCCC | -13.7
in CCCCCCCC | -13.6
in CCCCCCCCC | -13.3
in CCCCCCCCC=CCCCCCCCC(=O)OCC(COC(=O)CCCCCCCC=CCCCCCCCC)OC(=O)CCCCCCCC=CCCCCCCCC | -11.6
in CCCCCCCCCC | -13.2
in CCCCCCCCCCCC | -12.8
in CCCCCCCCCCCCCC | -12.1
in CCCCCCCCCCCCCCCC | -12.3
in CCCCCCCCCOC(=O)c1ccccc1C(=O)OCCCCCCCCC | -10.7
in CCCCCCCCN(CCCCCCCC)CCCCCCCC | -11.8
in CCCCCCCCO | -11.3
in CCCCCCCO | -11.1
in CCCCCCO | -11.2
in CCCCCCOC(C)=O | -12.4
in CCCCCN(CCCCC)CCCCC | -12.5
in CCCCCO | -11.1
in CCCCCl | -13.5
in CCCCN(C=O)CCCC | -10.8
in CCCCN(CCCC)CCCC | -12.1
in CCCCO | -11.3
in CCCCOC(=O)c1ccccc1C(=O)OCCCC | -10.8
in CCCCOC(C)=O | -12.3
in CCCCOCCCC | -13.3
in CCCO | -10.8
in CCN1CCCC1=O | -9.41
in CCN(CC)C(C)=O | -10.4
in CCN(CC)CC | -13.8
in CCNC(C)=O | -9.83
in CCNC=O | -8.83
in CCO | -10.5
in CCOC(=O)c1ccccc1C(=O)OCC | -8.83
in CCOC(C)=O | -11.9
in CCOCC | -13.8
in CCOCCOCCOCC | -11.7
in CCOc1ccccc1 | -11.8
in CN1CCCC1=O | -9.12
in CN1CCCCC1=O | -9.04
in CN1CCN(C)C1=O | -7.87
in CN(C)C=O | -9.12
in CN(C)P(=O)(N(C)C)N(C)C | -10
in CNC(C)=O | -9.08
in CNC=O | -7.82
in CO | -9.58
in COC(C)=O | -11.1
in COCCO | -9.04
in COCCOCCOCCOCCOC | -9.2
in COc1ccccc1 | -11.5
in CS(C)=O | -5.9
in Cc1ccc(C)cc1 | -13.2
in Cc1cccc2ccccc12 | -11
in Cc1cccc(C)c1 | -13
in Cc1cccc(O)c1 | -9.54
in Cc1ccccc1 | -13.2
in Cc1ccccn1 | -11.8
in ClC(Cl)(Cl)Cl | -13.9
in ClC(Cl)C(Cl)Cl | -11.6
in ClC(Cl)Cl | -13.5
in ClCCCl | -11.6
in ClCCl | -12.8
in Clc1cccc2ccccc12 | -10.5
in Clc1ccccc1 | -13.1
in FC(F)(F)C(F)(F)C(F)(F)C(F)(F)C(F)(F)C(F)(F)C(F)(F)C(F)(F)F | -8.62
in FC(F)(F)C(F)(F)C(F)(F)C(F)(F)C(F)(F)C(F)(F)F | -9
in Fc1ccccc1 | -13.6
in ICI | -6.99
in Ic1ccccc1 | -10.9
in N#CCCCCC#N | -5.52
in N#CCc1ccccc1 | -8.33
in N#Cc1ccccc1 | -10.4
in NC=O | -1.84
in NCCO | -1.13
in Nc1ccccc1 | -7.91
in O=C1CCCCC1 | -11.4
in O=C1CCCO1 | -7.2
in O=C(O)C(Cl)Cl | -8.87
in O=CN1CCOCC1 | -6.32
in O=Cc1ccco1 | -7.53
in OC1CCCCC1 | -10.3
in OCCO | -1.42
in OCCOCCO | -3.6
in OCCc1ccccc1 | -8.87
in OCc1ccccc1 | -8.62
in OCc1ccco1 | -6.99
in S=C=S | -13.8
in c1ccc2ncccc2c1 | -10.6
in c1ccccc1 | -13.2
in c1ccncc1 | -11

Cc1cccc2ccccc12
Details | solvation free energy, 298 K [kJ/mol]
in CCO | -31.3
in O | -9.71
in OCCOCCO | -30.7

C=CC(C)C
Details | solvation free energy, 298 K [kJ/mol]
in CC(=O)N(C)C | -8.91
in CC(C)CC(C)(C)C | -12
in CCC(C)=O | -11.3
in CCCCCCC | -12.4
in CCCCCCCC | -12.2
in CCCCO | -10.5
in CCNC(C)=O | -9.46
in CCOC(C)=O | -11.5
in CN1CCCC1=O | -8.49
in CN(C)C=O | -8.74
in CNC(C)=O | -8.95
in CNC=O | -7.32
in Cc1ccc(C)cc1 | -13.8
in ClCCCl | -11.3
in O | 7.7
in O=C1CCCCC1 | -10.9

CC(=O)CC(=O)C(F)(F)F
Details | solvation free energy, 298 K [kJ/mol]
in O | -20.5

COC(=O)c1ccc(N(C)C)cc1
Details | solvation free energy, 298 K [kJ/mol]
in CN(C)C=O | -49.8
in O | -29.3

Cc1cc(=O)n(-c2ccccc2)n1C
Details | solvation free energy, 298 K [kJ/mol]
in O | -55.6

Clc1cc2c(cc1Cl)Oc1ccccc1O2
Details | solvation free energy, 298 K [kJ/mol]
in O | -14.9

O=C(O)c1cccc([N+](=O)[O-])c1
Details | solvation free energy, 298 K [kJ/mol]
in C1CCOC1 | -52.5
in C1COCCO1 | -50.9
in CC(C)(C)O | -51.9
in CC(C)CCO | -49.3
in CC(C)CO | -50.4
in CC(C)O | -51.8
in CCC(C)O | -51.6
in CCCC(C)O | -51.1
in CCCCCCCCCCO | -49.3
in CCCCCCCCO | -49.8
in CCCCCCCO | -50
in CCCCCCO | -50.2
in CCCCCO | -50.7
in CCCCO | -51
in CCCCOC(C)=O | -48.7
in CCCO | -51.5
in CCO | -52.3
in CCOC(C)=O | -50
in CCOCC | -50.4
in CO | -53.2
in COC(C)=O | -50.5
in O | -39.5
